Test results published in ChEMBL document CHEMBL1201862, “PubChem BioAssay data set” (2004).
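Growth conditions: 96-well plates. Treatment: test compound, 48 hours, 5 concentrations. Analysis: linear interpolation between bracketing concentrations; unreached endpoints set to highest concentration. The concentration for 50% growth inhibition is given as GI50.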 Activity calls are given as the source filed them. Rule as the data show it: active = GI50 up to about 1.1 µM and inactive = higher.

Tests used:
Assay in all cases: inhibition of tumour cell growth, NCI panel, 48 h
[1] = system: 786-0
[2] = system: A498
[3] = system: A549
[4] = system: ACHN
[5] = system: BT-549
[6] = system: CAKI-1
[7] = system: CCRF-CEM
[8] = system: COLO 205
[9] = system: DU-145
[10] = system: EKVX
[11] = system: HCC 2998
[12] = system: HCT-116
[13] = system: HCT-15
[14] = system: HL-60
[15] = system: HOP-62
[16] = system: HOP-92
[17] = system: HT-29
[18] = system: Hs-578T
[19] = system: IGROV-1
[20] = system: K562
[21] = system: KM12
[22] = system: LOX IMVI
[23] = system: M14
[24] = system: MCF7
[25] = system: MDA-MB-231
[26] = system: MDA-MB-435
[27] = system: MDA-N
[28] = system: MOLT-4
[29] = system: Malme-3M
[30] = system: NCI-H226
[31] = system: NCI-H23
[32] = system: NCI-H460
[33] = system: NCI-H522
[34] = system: NCI/ADR-RES
[35] = system: OVCAR-4
[36] = system: OVCAR-5
[37] = system: OVCAR-8
[38] = system: PC-3
[39] = system: RPMI-8226
[40] = system: RXF 393
[41] = system: SF-268
[42] = system: SF-295
[43] = system: SF-539
[44] = system: SK-MEL-28
[45] = system: SK-MEL-2
[46] = system: SK-MEL-5
[47] = system: SK-OV-3
[48] = system: SN12C
[49] = system: SNB-19
[50] = system: SNB-75
[51] = system: SR
[52] = system: SW-620
[53] = system: T47D
[54] = system: TK-10
[55] = system: U-251
[56] = system: UACC-257
[57] = system: UACC-62
[58] = system: UO-31
[59] = system: DMS-114
[60] = system: DMS-273
[61] = system: KM-20L2
[62] = system: M19-MEL
[63] = system: OVCAR-3
[64] = system: SNB-78

Compound: COCn1c(C)c(C)c2c(=O)oc(=O)[nH]c21
- GI50 [1]: > 100 µM (inactive)
- GI50 [2]: > 100 µM (inactive)
- GI50 [3]: > 100 µM (inactive)
- GI50 [4]: > 100 µM (inactive)
- GI50 [5]: > 100 µM (inactive)
- GI50 [6]: 8.24 µM (inactive)
- GI50 [7]: > 100 µM (inactive)
- GI50 [8]: > 100 µM (inactive)
- GI50 [9]: > 100 µM (inactive)
- GI50 [10]: > 100 µM (inactive)
- GI50 [11]: > 100 µM (inactive)
- GI50 [12]: > 100 µM (inactive)
- GI50 [13]: > 100 µM
- GI50 [14]: 54.8 µM (inactive)
- GI50 [15]: > 100 µM (inactive)
- GI50 [16]: > 100 µM (inactive)
- GI50 [17]: > 100 µM (inactive)
- GI50 [18]: > 100 µM (inactive)
- GI50 [19]: > 100 µM (inactive)
- GI50 [20]: > 100 µM (inactive)
- GI50 [21]: > 100 µM (inactive)
- GI50 [22]: > 100 µM (inactive)
- GI50 [23]: > 100 µM (inactive)
- GI50 [24]: > 100 µM (inactive)
- GI50 [25]: > 100 µM (inactive)
- GI50 [26]: > 100 µM (inactive)
- GI50 [27]: > 100 µM (inactive)
- GI50 [28]: > 100 µM (inactive)
- GI50 [29]: > 100 µM (inactive)
- GI50 [30]: > 100 µM (inactive)
- GI50 [31]: > 100 µM (inactive)
- GI50 [32]: > 100 µM (inactive)
- GI50 [33]: > 100 µM (inactive)
- GI50 [34]: > 100 µM (inactive)
- GI50 [35]: > 100 µM (inactive)
- GI50 [36]: > 100 µM (inactive)
- GI50 [37]: > 100 µM (inactive)
- GI50 [38]: > 100 µM (inactive)
- GI50 [39]: > 100 µM (inactive)
- GI50 [40]: > 100 µM (inactive)
- GI50 [41]: > 100 µM (inactive)
- GI50 [42]: > 100 µM (inactive)
- GI50 [43]: > 100 µM (inactive)
- GI50 [44]: > 100 µM (inactive)
- GI50 [45]: > 100 µM (inactive)
- GI50 [46]: > 100 µM (inactive)
- GI50 [47]: > 100 µM (inactive)
- GI50 [48]: > 100 µM (inactive)
- GI50 [49]: > 100 µM (inactive)
- GI50 [50]: > 100 µM (inactive)
- GI50 [51]: > 100 µM (inactive)
- GI50 [52]: > 100 µM (inactive)
- GI50 [53]: > 100 µM (inactive)
- GI50 [54]: > 100 µM (inactive)
- GI50 [55]: > 100 µM (inactive)
- GI50 [56]: > 100 µM (inactive)
- GI50 [57]: > 100 µM (inactive)
- GI50 [58]: > 100 µM (inactive)

Compound: CC(=O)OC1CCC2OOC1O2 (stereo unspecified)
- GI50 [1]: > 100 µM (inactive)
- GI50 [2]: > 100 µM (inactive)
- GI50 [3]: > 100 µM (inactive)
- GI50 [4]: > 100 µM (inactive)
- GI50 [6]: > 100 µM (inactive)
- GI50 [7]: > 100 µM (inactive)
- GI50 [8]: > 100 µM (inactive)
- GI50 [59]: > 100 µM (inactive)
- GI50 [60]: > 100 µM (inactive)
- GI50 [10]: > 100 µM (inactive)
- GI50 [11]: > 100 µM (inactive)
- GI50 [12]: > 100 µM (inactive)
- GI50 [13]: > 100 µM
- GI50 [14]: > 100 µM (inactive)
- GI50 [15]: > 100 µM (inactive)
- GI50 [17]: > 100 µM (inactive)
- GI50 [19]: > 100 µM (inactive)
- GI50 [20]: > 100 µM (inactive)
- GI50 [61]: > 100 µM (inactive)
- GI50 [21]: > 100 µM (inactive)
- GI50 [22]: > 100 µM (inactive)
- GI50 [23]: > 100 µM (inactive)
- GI50 [62]: > 100 µM (inactive)
- GI50 [28]: > 100 µM (inactive)
- GI50 [29]: > 100 µM (inactive)
- GI50 [30]: > 100 µM (inactive)
- GI50 [31]: > 100 µM (inactive)
- GI50 [32]: > 100 µM (inactive)
- GI50 [33]: > 100 µM (inactive)
- GI50 [63]: > 100 µM (inactive)
- GI50 [35]: > 100 µM (inactive)
- GI50 [36]: > 100 µM (inactive)
- GI50 [37]: > 100 µM (inactive)
- GI50 [39]: > 100 µM (inactive)
- GI50 [40]: > 100 µM (inactive)
- GI50 [41]: > 100 µM (inactive)
- GI50 [42]: > 100 µM (inactive)
- GI50 [43]: > 100 µM (inactive)
- GI50 [44]: > 100 µM (inactive)
- GI50 [45]: > 100 µM (inactive)
- GI50 [46]: > 100 µM (inactive)
- GI50 [47]: > 100 µM (inactive)
- GI50 [48]: > 100 µM (inactive)
- GI50 [49]: > 100 µM (inactive)
- GI50 [50]: > 100 µM (inactive)
- GI50 [64]: > 100 µM (inactive)
- GI50 [51]: > 100 µM (inactive)
- GI50 [52]: > 100 µM (inactive)
- GI50 [54]: > 100 µM (inactive)
- GI50 [55]: > 100 µM (inactive)
- GI50 [56]: > 100 µM (inactive)
- GI50 [57]: > 100 µM (inactive)
- GI50 [58]: > 100 µM (inactive)
